PubChem BioAssay (NCI)
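96-well plates; 48 h exposure; 5 concentrations. Endpoints by linear interpolation between flanking doses. Not reached: highest tested concentration assigned. TGI marks complete inhibition of growth.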

How the values were obtained:
Assay in all cases: NCI tumour cell line growth inhibition, 48 h
CAKI-1 renal = test system: CAKI-1 renal
EKVX NSCLC = test system: EKVX NSCLC
K-562 leukemia = test system: K-562 leukemia
M14 melanoma = test system: M14 melanoma
MDA-MB-435 = test system: MDA-MB-435
SK-MEL-28 melanoma = test system: SK-MEL-28 melanoma
SW-620 colon = test system: SW-620 colon
U251 CNS = test system: U251 CNS
UACC-257 melanoma = test system: UACC-257 melanoma
SF-539 CNS = test system: SF-539 CNS

CC(C)CC1c2[nH]c3ccccc3c2C[C@H]2C(=O)NC(COC(C)(C)C)C(=O)N12 (some centres undefined)
TGI (CAKI-1 renal): 79.5 µM
TGI (EKVX NSCLC): 71.7 µM
TGI (K-562 leukemia): 92.7 µM
TGI (M14 melanoma): 46.7 µM
TGI (MDA-MB-435): 39.9 µM
TGI (SK-MEL-28 melanoma): > 100 µM
TGI (SW-620 colon): > 100 µM
TGI (U251 CNS): 41 µM
TGI (UACC-257 melanoma): 39.3 µM

Cc1ccc(S(=O)(=O)NC(=O)NS(=O)(=O)O)cc1
TGI (K-562 leukemia): > 100 µM
TGI (M14 melanoma): > 100 µM
TGI (SF-539 CNS): > 100 µM
TGI (SK-MEL-28 melanoma): > 100 µM
TGI (SW-620 colon): > 100 µM
TGI (U251 CNS): > 100 µM
TGI (UACC-257 melanoma): > 100 µM

O=C(CCCN1CCc2[nH]c3cc(F)ccc3c2C1)c1ccc(F)cc1
TGI (CAKI-1 renal): > 100 µM
TGI (EKVX NSCLC): 29.3 µM
TGI (K-562 leukemia): 22.5 µM
TGI (M14 melanoma): 22.2 µM
TGI (MDA-MB-435): 25.6 µM
TGI (SF-539 CNS): 30.5 µM
TGI (SK-MEL-28 melanoma): 34.9 µM
TGI (SW-620 colon): > 100 µM
TGI (U251 CNS): 29.8 µM
TGI (UACC-257 melanoma): 28.8 µM

CN1C(=O)[C@@]2(C=CC3(CC2)OCCO3)c2ccccc21
TGI (CAKI-1 renal): > 50 µM
TGI (EKVX NSCLC): > 50 µM
TGI (K-562 leukemia): > 50 µM
TGI (M14 melanoma): > 50 µM
TGI (MDA-MB-435): > 50 µM
TGI (SK-MEL-28 melanoma): > 50 µM
TGI (SW-620 colon): > 50 µM
TGI (U251 CNS): > 50 µM
TGI (UACC-257 melanoma): > 50 µM

CC(=O)Oc1ccc2c(c1)c1c(OC(C)=O)c3ccccc3c(OC(C)=O)c1n2Cc1cccc(C)c1
TGI (CAKI-1 renal): > 100 µM
TGI (EKVX NSCLC): 57.3 µM
TGI (K-562 leukemia): > 100 µM
TGI (M14 melanoma): > 100 µM
TGI (MDA-MB-435): > 100 µM
TGI (SF-539 CNS): 79.3 µM
TGI (SK-MEL-28 melanoma): > 100 µM
TGI (U251 CNS): > 100 µM

CCC1(O)CN(CCOC)[C@H]2C[C@@H]1C(=O)c1[nH]c3ccccc3c12 (some centres undefined)
TGI (CAKI-1 renal): > 100 µM
TGI (EKVX NSCLC): > 100 µM
TGI (K-562 leukemia): > 100 µM
TGI (M14 melanoma): > 100 µM
TGI (MDA-MB-435): > 100 µM
TGI (SF-539 CNS): > 100 µM
TGI (SK-MEL-28 melanoma): > 100 µM
TGI (SW-620 colon): > 100 µM
TGI (U251 CNS): > 100 µM
TGI (UACC-257 melanoma): > 100 µM

CSC1(SC)CCCCCCCCCCC1
TGI (CAKI-1 renal): > 100 µM
TGI (EKVX NSCLC): > 100 µM
TGI (K-562 leukemia): > 100 µM
TGI (M14 melanoma): > 100 µM
TGI (MDA-MB-435): > 100 µM
TGI (SF-539 CNS): > 100 µM
TGI (SK-MEL-28 melanoma): > 100 µM
TGI (SW-620 colon): > 100 µM
TGI (U251 CNS): > 100 µM
TGI (UACC-257 melanoma): 74 µM

COc1ccc(C=O)cc1Oc1ccc(C[C@H]2c3c(cc(OC)c4c3Oc3cc5c(cc3O4)CCN(C)C5=O)CCN2C)cc1
TGI (CAKI-1 renal): > 50 µM
TGI (EKVX NSCLC): 22.3 µM
TGI (K-562 leukemia): 12.3 µM
TGI (M14 melanoma): 19.1 µM
TGI (MDA-MB-435): 21.7 µM
TGI (SF-539 CNS): 18.3 µM
TGI (SK-MEL-28 melanoma): 22.7 µM
TGI (SW-620 colon): 30.9 µM
TGI (U251 CNS): 22.8 µM
TGI (UACC-257 melanoma): 17.6 µM

COC(=O)c1cc2c3c(c(C(C)=O)c(OC)c2[nH]1)NCC3
TGI (CAKI-1 renal): > 50 µM
TGI (EKVX NSCLC): > 50 µM
TGI (K-562 leukemia): > 50 µM
TGI (M14 melanoma): > 50 µM
TGI (MDA-MB-435): > 50 µM
TGI (SF-539 CNS): > 50 µM
TGI (SW-620 colon): > 50 µM
TGI (U251 CNS): > 50 µM
TGI (UACC-257 melanoma): > 50 µM

C/C=C\C(CC(=O)O)CC(=O)NCCC1CN(S(=O)(=O)C(F)(F)F)c2ccccc21 (centres undefined)
TGI (CAKI-1 renal): > 100 µM
TGI (EKVX NSCLC): > 100 µM
TGI (K-562 leukemia): > 100 µM
TGI (M14 melanoma): > 100 µM
TGI (MDA-MB-435): > 100 µM
TGI (SK-MEL-28 melanoma): > 100 µM
TGI (SW-620 colon): > 100 µM
TGI (U251 CNS): > 100 µM
TGI (UACC-257 melanoma): > 100 µM

Cn1c(=O)c2[nH]c(N/N=C3/SCC(=O)N3Cc3ccccc3)nc2n(C)c1=O
TGI (CAKI-1 renal): > 100 µM
TGI (EKVX NSCLC): > 100 µM
TGI (K-562 leukemia): > 100 µM
TGI (M14 melanoma): > 100 µM
TGI (MDA-MB-435): 50.1 µM
TGI (SF-539 CNS): > 100 µM
TGI (SK-MEL-28 melanoma): > 100 µM
TGI (U251 CNS): > 100 µM
TGI (UACC-257 melanoma): > 100 µM

CCOC(=O)C(Cc1c(-c2[nH]c3ccccc3c2CC(NC(=O)CNC(C)=O)C(=O)OCC)[nH]c2ccccc12)NC(=O)CNC(C)=O (centres undefined)
TGI (CAKI-1 renal): > 100 µM
TGI (EKVX NSCLC): > 100 µM
TGI (M14 melanoma): > 100 µM
TGI (MDA-MB-435): > 100 µM
TGI (SK-MEL-28 melanoma): > 100 µM
TGI (SW-620 colon): > 100 µM
TGI (U251 CNS): > 100 µM
TGI (UACC-257 melanoma): 73.5 µM

Cc1nn(C(=O)c2ccccc2O)c2c1C(c1ccc(O)cc1)SC(N)=N2 (centres undefined)
TGI (CAKI-1 renal): > 10 µM
TGI (EKVX NSCLC): > 10 µM
TGI (K-562 leukemia): > 3.53 µM
TGI (M14 melanoma): > 10 µM
TGI (MDA-MB-435): > 10 µM
TGI (SF-539 CNS): > 2.47 µM
TGI (SK-MEL-28 melanoma): > 10 µM
TGI (SW-620 colon): > 10 µM
TGI (U251 CNS): > 10 µM
TGI (UACC-257 melanoma): > 10 µM

CSc1nc2c(ncn2C2OCC(O)C(O)C2O)c(=O)[nH]1 (centres undefined)
TGI (EKVX NSCLC): > 100 µM
TGI (K-562 leukemia): > 100 µM
TGI (SF-539 CNS): > 100 µM
TGI (SK-MEL-28 melanoma): > 100 µM
TGI (SW-620 colon): > 100 µM
TGI (U251 CNS): > 100 µM
TGI (UACC-257 melanoma): > 100 µM

CCOC(=O)Cc1nc2c(=O)[nH]cnc2n1C1OC(COC(C)=O)C(OC(C)=O)C1OC(C)=O (centres undefined)
TGI (CAKI-1 renal): > 100 µM
TGI (EKVX NSCLC): > 100 µM
TGI (K-562 leukemia): > 100 µM
TGI (M14 melanoma): > 100 µM
TGI (MDA-MB-435): > 100 µM
TGI (SF-539 CNS): > 100 µM
TGI (SK-MEL-28 melanoma): > 100 µM
TGI (SW-620 colon): > 100 µM
TGI (U251 CNS): > 100 µM
TGI (UACC-257 melanoma): > 100 µM

CCOc1cc(C=O)ccc1O
TGI (CAKI-1 renal): > 100 µM
TGI (EKVX NSCLC): > 100 µM
TGI (K-562 leukemia): > 100 µM
TGI (M14 melanoma): > 100 µM
TGI (MDA-MB-435): > 100 µM
TGI (SF-539 CNS): > 100 µM
TGI (SK-MEL-28 melanoma): > 100 µM
TGI (SW-620 colon): > 100 µM
TGI (U251 CNS): > 100 µM
TGI (UACC-257 melanoma): > 100 µM

O=C(O)CCCc1nc2c(n1-c1ccccc1)C(=O)c1ccccc1C2=O
TGI (CAKI-1 renal): > 100 µM
TGI (EKVX NSCLC): > 100 µM
TGI (K-562 leukemia): > 100 µM
TGI (M14 melanoma): > 100 µM
TGI (SF-539 CNS): > 100 µM
TGI (SK-MEL-28 melanoma): > 100 µM
TGI (SW-620 colon): > 100 µM
TGI (U251 CNS): > 100 µM
TGI (UACC-257 melanoma): > 100 µM

COC(=O)CNC(=O)/C=C/[C@H](O[Si](C)(C)C(C)(C)C)[C@H](/C=C/C(=O)NCC(=O)OC)O[Si](C)(C)C(C)(C)C
TGI (CAKI-1 renal): > 25 µM
TGI (EKVX NSCLC): > 25 µM
TGI (K-562 leukemia): > 25 µM
TGI (MDA-MB-435): > 25 µM
TGI (SF-539 CNS): > 25 µM
TGI (SK-MEL-28 melanoma): > 25 µM
TGI (SW-620 colon): > 25 µM
TGI (U251 CNS): > 25 µM
TGI (UACC-257 melanoma): > 25 µM

CSc1s[s+]c(SC)c1-c1ccccc1
TGI (CAKI-1 renal): 36.4 µM
TGI (EKVX NSCLC): 33 µM
TGI (K-562 leukemia): 50.3 µM
TGI (M14 melanoma): 30.8 µM
TGI (MDA-MB-435): 36 µM
TGI (SF-539 CNS): 32.4 µM
TGI (SW-620 colon): 34.9 µM
TGI (U251 CNS): 41.1 µM
TGI (UACC-257 melanoma): 27.8 µM

COc1ccc([C@@]23CCC(=O)C[C@@H]2N(C)CC3)cc1OC
TGI (CAKI-1 renal): > 100 µM
TGI (EKVX NSCLC): > 100 µM
TGI (K-562 leukemia): > 100 µM
TGI (M14 melanoma): > 100 µM
TGI (MDA-MB-435): > 100 µM
TGI (SF-539 CNS): > 100 µM
TGI (SK-MEL-28 melanoma): > 100 µM
TGI (SW-620 colon): > 100 µM
TGI (U251 CNS): > 100 µM
TGI (UACC-257 melanoma): > 100 µM

COc1ccc(S(=O)(=O)Nc2ccc(-c3csc(N4C(=O)/C(=C/C=C\c5ccccc5)N=C4c4ccccc4)n3)cc2)cc1Cl
TGI (CAKI-1 renal): > 100 µM
TGI (K-562 leukemia): > 100 µM
TGI (M14 melanoma): 83.6 µM
TGI (MDA-MB-435): 62 µM
TGI (SF-539 CNS): > 100 µM
TGI (SK-MEL-28 melanoma): > 100 µM
TGI (SW-620 colon): > 100 µM
TGI (U251 CNS): 76.4 µM
TGI (UACC-257 melanoma): > 100 µM

COC(=O)C(Cc1ccccc1)NC(=O)CCCNC(=O)OCc1ccccc1 (centres undefined)
TGI (CAKI-1 renal): > 100 µM
TGI (EKVX NSCLC): > 100 µM
TGI (K-562 leukemia): > 100 µM
TGI (M14 melanoma): 32.5 µM
TGI (MDA-MB-435): > 100 µM
TGI (SK-MEL-28 melanoma): > 100 µM
TGI (SW-620 colon): > 100 µM
TGI (U251 CNS): > 100 µM
